# Values of other authors as cited in patent publication US10828414B2, “Magnetic filtration devices and methods related thereto” (The Regents of the University of California, priority 2015, dated 2020).
# Conditions: IAC, regardless of infused dose
smiles,measurement,value
"COc1cccc2c1C(=O)c1c(O)c3c(c(O)c1C2=O)C[C@@](O)(C(=O)CO)C[C@@H]3O[C@H]1C[C@H](N)[C@H](O)[C@H](C)O1 [Dox, doxorubicin]",first pass hepatic clearance,50-70%
